Experiments:
[1] = logP determination by HPLC on reverse-phase column (C 18), acidic range pH 2.3; type: physicochemical; conditions: for chromatographic logP: reverse-phase HPLC column (C 18)
Protocol: The logP values given in Table 1 were determined with EEC Directive 79/831 Annex V.A8 by HPLC (High Performance Liquid Chromatography) on a reverse-phase column (C 18). Temperature: 43° C. Mobile phases for the determination in the acidic range (pH 2.3): 0.1% aqueous phosphoric acid, acetonitrile; linear gradient from 10% acetonitrile to 90% acetonitrile. Calibration was carried out using unbranched alkan-2-ones (having 3 to 16 carbon atoms) with known logP values (determination of the logP values by the retention times using linear interpolation between two successive alkanones).

[2] = system: Puccinia recondita; assay: Puccinia test (wheat)/protective; type: in vivo; conditions: 240 h, wheat plants, protective, application rate 500 g/ha, evaluation 10 days after inoculation, read-out: Efficacy in %
Protocol: (§1) To produce a suitable preparation of active compound, 1 part by weight of active compound is mixed with the stated amounts of solvent and emulsifier, and the concentrate is diluted with water to the desired concentration.
To test for protective activity, young plants are inoculated with a spore suspension of Puccinia recondita in a 0.1% strength aqueous agar solution. After the spray coating has dried on, the plants are sprayed with the preparation of active compound at the stated application rate. The plants remain in an incubation cabin at 20° C. and 100% relative atmospheric humidity for 24 hours.
The plants are then placed in a greenhouse at a temperature of about 20° C. and a relative atmospheric humidity of 80% to promote the development of rust pustules.
(§2) Evaluation is carried out 10 days after the inoculation. 0% means an efficacy which corresponds to that of the control, whereas an efficacy of 100% means that no infection is observed.

[3] = system: apple scab pathogen Venturia inaequalis; assay: Venturia test (apple)/protective; type: in vivo; conditions: apple plants, protective; application rate 100 g/ha; evaluation 10 days after inoculation
Protocol: (§3) To produce a suitable preparation of active compound, 1 part by weight of active compound is mixed with the stated amounts of solvents and emulsifier, and the concentrate is diluted with water to the desired concentration.
To test for protective activity, young plants are sprayed with the preparation of active compound at the stated application rate. After the spray coating has dried on, the plants are inoculated with an aqueous conidia suspension of the apple scab pathogen Venturia inaequalis and then remain in an incubation cabin at about 20° C. and 100% relative atmospheric humidity for 1 day.
The plants are then placed in a greenhouse at about 21° C. and a relative atmospheric humidity of about 90%.
as §2

[4] = system: Botrytis cinerea; assay: Botrytis test (bean)/protective; type: in vivo; conditions: 48 h, bean plants, protective, application rate 500 g/ha, evaluation 2 days after inoculation, read-out: Efficacy in %
Protocol: as §3
To test for protective activity, young plants are sprayed with the preparation of active compound at the stated application rate. After the spray coating has dried on, 2 small pieces of agar colonized by Botrytis cinerea are placed onto each leaf. The inoculated plants are placed in a dark chamber at about 20° C. and 100% relative atmospheric humidity.
2 days after the inoculation, the size of the infected areas on the leaves is evaluated. 0% means an efficacy which corresponds to that of the control, whereas an efficacy of 100% means that no infection is observed.

[5] = system: Alternaria solani; assay: Alternaria test (tomato)/protective; type: in vivo; conditions: tomato plants, protective; application rate 750 g/ha; evaluation 7 days after inoculation
Protocol: as §1
To test for protective activity, young tomato plants are sprayed with the preparation of active compound at the stated application rate. 1 day after the treatment, the plants are inoculated with a spore suspension of Alternaria solani and then remain at 100% relative atmospheric humidity and 20° C. for 24 hours. The plants then remain at 96% relative atmospheric humidity and a temperature of 20° C.
Evaluation is carried out 7 days after the inoculation. 0% means an efficacy which corresponds to that of the control, whereas an efficacy of 100% means that no infection is observed.

[6] = HPLC, C 18 reverse-phase, 43° C.

Row | logP (pH 2.3) [1, 6] | Structure (SMILES) | also measured
1 | 3.72 | C#CCO/N=C(\C)c1ccc(-c2ccccc2NC(=O)c2sc(C)nc2C(F)(F)F)cc1 [Compound 67] | 
2 | 3.16 | C#CCO/N=C(\C)c1ccc(-c2ccccc2NC(=O)c2cccnc2Cl)cc1 [Compound 68] | 
3 | 3.27 | C#CCO/N=C(\C)c1ccc(-c2ccccc2NC(=O)c2c(C)nn(C)c2F)cc1 [Compound 71] | 
4 | 2.75 | C#CCO/N=C(\C)c1ccc(-c2ccccc2NC(=O)c2cn(C)nc2C)cc1 [Compound 78] | 
5 | 3.95 | CC#CCO/N=C(/C)c1ccc(-c2ccccc2NC(=O)c2ccoc2C)cc1 [Compound 50] | 
6 | 3.81 | C#CCO/N=C(\C)c1ccc(-c2ccccc2NC(=O)C2=C(C)OCCS2)cc1 [Compound 74] | 
7 | 3.73 | C#CCO/N=C(\C)c1ccc(-c2ccccc2NC(=O)c2ccccc2Cl)cc1 [Compound 81] | 
8 | 3.59 | C#CCO/N=C(\C)c1ccc(-c2ccccc2NC(=O)c2ccoc2C)cc1 [Compound 77] | 
9 | 3.36 | C#CCO/N=C(\C)c1ccc(-c2ccccc2NC(=O)c2cn(C)nc2C(F)(F)F)cc1 [Compound 70] | 
10 | 3.74 | C#CCO/N=C(\C)c1ccc(-c2ccccc2NC(=O)c2ccccc2Br)cc1 [Compound 80] | 
11 | 4.38 | C=CCO/N=C(/C)c1ccc(-c2ccccc2NC(=O)C2=C(C)OCCS2)cc1 [Compound 39] | 
12 | 3.81 | C#CCO/N=C(\C)c1ccc(-c2ccccc2NC(=O)c2ccccc2I)cc1 [Compound 79] | 
13 | 3.83 | C#CCO/N=C(\C)c1ccc(-c2ccccc2NC(=O)c2ccccc2C(F)(F)F)cc1 [Compound 73] | 
14 | 3.6 | C#CCO/N=C(\C)c1ccc(-c2ccccc2NC(=O)c2cn(C)cc2C(F)(F)F)cc1 [Compound 75] | 

The next lines start with the compound.

Row | Structure (SMILES) | logP (pH 2.3) [1, 6] | also measured
15 | C/C(=N/OCC=C(Cl)Cl)c1ccc(-c2ccccc2NC(=O)c2ccoc2C)cc1 [Compound 61] | 4.98 | 
16 | C=CC(C)O/N=C(/C)c1ccc(-c2ccccc2NC(=O)c2cccnc2Cl)cc1 (stereo not shown) [Compound 42] | 2.89 | 
17 | CC#CCO/N=C(/C)c1ccc(-c2ccccc2NC(=O)c2cn(C)nc2C(F)(F)F)cc1 [Compound 40] |  | chromatographic logP [1, 6]: 3.67; pest or weed control at 500 g/ha [2]: 100%
18 | CC#CCO/N=C(/C)c1ccc(-c2ccccc2NC(=O)c2c(C)nn(C)c2F)cc1 [Compound 37] | 3.63 | 
19 | C#CCO/N=C(/C)c1ccc(-c2ccccc2NC(=O)c2cn(C)nc2C(F)F)cc1 [Compound 72] |  | chromatographic logP [1, 6]: 3.14; pest or weed control at 500 g/ha [2]: 100%
20 | C#CCO/N=C/c1ccc(-c2ccccc2NC(=O)c2cccnc2Cl)cc1 [Compound 82] | 2.92 | 
21 | Cn1cc(C(=O)Nc2ccccc2-c2ccc(/C=N\OCC3CC3)cc2)c(C(F)(F)F)n1 [Compound 4] |  | Efficacy in % [3]: 91%; chromatographic logP [1, 6]: 3.77
22 | CC#CCO/N=C(/C)c1ccc(-c2ccccc2NC(=O)c2cccnc2Cl)cc1 [Compound 41] | 3.48 | 
23 | C=C(C)CO/N=C(/C)c1ccc(-c2ccccc2NC(=O)c2cn(C)nc2C(F)(F)F)cc1 [Compound 48] | 4.14 | 
24 | O=C(Nc1ccccc1-c1ccc(/C=N\OCC2CC2)cc1)c1cccnc1Cl [Compound 3] |  | chromatographic logP [1, 6]: 3.57; pest or weed control at 500 g/ha [4]: 95%
25 | C=CC(C)O/N=C(/C)c1ccc(-c2ccccc2NC(=O)c2cn(C)nc2C(F)(F)F)cc1 (stereo not shown) [Compound 46] | 4.15 | 
26 | Cc1nc(C(F)F)c(C(=O)Nc2ccccc2-c2ccc(/C=N\OCC3CC3)cc2)s1 [Compound 8] |  | Efficacy in % [3]: 100%; chromatographic logP [1, 6]: 3.87; pest or weed control at 500 g/ha [4]: 85%
27 | Cn1cc(C(=O)Nc2ccccc2-c2ccc(/C=N\OCC3CC3)cc2)c(C(F)F)n1 [Compound 7] |  | Efficacy in % [3]: 100%; chromatographic logP [1, 6]: 3.53; pest or weed control at 500 g/ha [2]: 100%; pest or weed control at 500 g/ha [4]: 96%
28 | C=C(C)CO/N=C(/C)c1ccc(-c2ccccc2NC(=O)c2ccoc2C)cc1 [Compound 51] | 4.51 | 
29 | C=CCO/N=C\c1ccc(-c2ccccc2NC(=O)c2cn(C)nc2C(F)(F)F)cc1 [Compound 11] |  | Efficacy in % [5]: 100%; chromatographic logP [1, 6]: 3.53
30 | CC#CCO/N=C(/C)c1ccc(-c2ccccc2NC(=O)c2cn(C)nc2C)cc1 [Compound 55] |  | chromatographic logP [1, 6]: 3.06; pest or weed control at 500 g/ha [2]: 100%
31 | C#CCO/N=C/c1ccc(-c2ccccc2NC(=O)c2sc(C)nc2C(F)(F)F)cc1 [Compound 83] | 3.48 | 
32 | C#CCO/N=C(/C)c1ccc(-c2ccccc2NC(=O)c2sc(C)nc2C(F)F)cc1 [Compound 69] |  | chromatographic logP [1, 6]: 3.45; pest or weed control at 500 g/ha [2]: 100%

Row | Structure (SMILES) | logP (pH 2.3) [1, 6] | also measured
33 | C=CCO/N=C\c1ccc(-c2ccccc2NC(=O)c2cn(C)nc2C(F)F)cc1 [Compound 10] |  | Efficacy in % [3]: 100%; chromatographic logP [1, 6]: 3.32; pest or weed control at 500 g/ha [2]: 100%; pest or weed control at 500 g/ha [4]: 95%
34 | C=CC(C)O/N=C(/C)c1ccc(-c2ccccc2NC(=O)c2ccoc2C)cc1 (stereo not shown) [Compound 47] | 4.52 | 
35 | C=C(C)CO/N=C(/C)c1ccc(-c2ccccc2NC(=O)c2c(C)nn(C)c2F)cc1 [Compound 36] | 4.18 | 
36 | C=CC(C)O/N=C(/C)c1ccc(-c2ccccc2NC(=O)c2cn(C)cc2C(F)(F)F)cc1 (stereo not shown) [Compound 57] | 4.41 | 
37 | CC(=O)c1ccc(-c2ccccc2N)cc1 [XIV-1, 1-(2′-aminobiphenyl-4-yl)ethanone] |  | chromatographic logP [1]: 1.8
38 | C=C(C)CO/N=C(/C)c1ccc(-c2ccccc2NC(=O)c2cccnc2Cl)cc1 [Compound 60] | 3.95 | 
39 | C=C(C)CO/N=C(/C)c1ccc(-c2ccccc2NC(=O)c2ccccc2C(F)(F)F)cc1 [Compound 58] | 4.64 | 
40 | C/C(=N\OCC=C(Cl)Cl)c1ccc(-c2ccccc2NC(=O)c2cn(C)nc2C)cc1 [Compound 54, N-(4′-{1-[3,3-dichloroallyloxyimino]ethyl}biphenyl-2-yl)-1,3-dimethyl-1H-pyrazole-4-carboxamide] |  | chromatographic logP [1]: 3.97
41 | C/C(=N/OCC=C(Cl)Cl)c1ccc(-c2ccccc2NC(=O)c2sc(C)nc2C(F)(F)F)cc1 [Compound 62] | 3.81 | 
42 | CC(=O)c1ccc(-c2ccccc2NC(=O)c2cccnc2Cl)cc1 [VIII-1, N-(4′-acetyl-biphenyl-2-yl)-2-chloronicotinamide] |  | chromatographic logP [1]: 2.12
43 | C=CCO/N=C/c1ccc(-c2ccccc2NC(=O)c2sc(C)nc2C(F)F)cc1 [Compound 9, N-[4′-(allyloxyimino-methyl)-biphenyl-2-yl]-4-difluoromethyl-2-methylthiazole-5-carboxamide] |  | Efficacy in % [3]: 100%; chromatographic logP [1, 6]: 3.65; pest or weed control at 500 g/ha [4]: 95%
44 | C=C(C)CO/N=C(/C)c1ccc(-c2ccccc2NC(=O)c2sc(C)nc2C(F)(F)F)cc1 [Compound 44] | 3.49 | 
45 | C=C(C)CO/N=C(/C)c1ccc(-c2ccccc2NC(=O)c2cn(C)nc2C)cc1 [Compound 52] | 3.52 | 
46 | C=CC(C)O/N=C(/C)c1ccc(-c2ccccc2NC(=O)c2ccccc2C(F)(F)F)cc1 (stereo not shown) [Compound 59] | 4.65 | 
47 | C=CC(C)O/N=C(/C)c1ccc(-c2ccccc2NC(=O)c2cn(C)nc2C)cc1 (stereo not shown) [Compound 53] | 3.53 | 
48 | C=CCO/N=C(/C)c1ccc(-c2ccccc2NC(=O)c2ccoc2C)cc1 [Compound 38] | 4.14 | 
49 | C/C(=N/OCC=C(Cl)Cl)c1ccc(-c2ccccc2NC(=O)c2cccnc2Cl)cc1 [Compound 63, 2-chloro-N-{4′-[1-(3,3-dichloroallyloxyimino)ethyl]-biphenyl-2-yl}nicotinamide] |  | chromatographic logP [1]: 4.43
50 | C=CCO/N=C(\C)c1ccc(-c2ccccc2NC(=O)c2c(C)nn(C)c2F)cc1 [Compound 17, N-(4′-{1-(allyloxyimino)-ethyl}-biphenyl-2-yl)-5-fluoro-1,3-dimethyl-1H-pyrazole-4-carboxamide] |  | chromatographic logP [1]: 3.8
